Measured values taken from patent US20120028897A1, “METHODS AND COMPOSITIONS FOR THE TREATMENT OF FLUID RETENTION DISORDERS” (priority 2008, published 2012).

Legend:
[1] = molecular target: cultured GC-C-expressing cells (Homo sapiens, UniProt P25092); details: read-out: EC50, cGMP responses; cited from earlier work
[2] = test system: anesthetized rats; experiment: Renal sodium excretion during and after iv peptide infusion in anesthetized rats; type: in vivo, rat
Method: Rats were not fasted prior to clearance experiments and ranged in weight from 250-340 g at the time of study. Anesthesia was induced with an intraperitoneal injection of pentobarbital sodium (55 mg/kg BW) and maintained at a surgical plane by intermittent intravenous supplementation. Core temperature was maintained at 37° C. by a servo-controlled, heated operating table. Animals breathed spontaneously through a PE240 cannula inserted into the trachea. A jugular vein was catheterized with PE50 cannula tubing for intravenous infusion of isotonic saline containing FITC-labeled inulin (0.4% W/V, Sigma, St Louis Mo.) and two PE10 cannulae, one for supplemental anesthetic and the other for peptide infusions (described below in the experimental protocol section). The ureters were exposed through a midline ventral incision and cannulated with PE10 tubing about one cm from each kidney. Urine was collected over 20 min periods and the volume estimated by weight. A femoral artery was cannulated with PE50 tubing for continuous measurement of arterial blood pressure and intermittent blood samples (50 μl), taken at the mid point of each urine collection.
All rats received a continuous intravenous infusion (10 μl/min/100 g BW) of isotonic saline containing FITC-labeled inulin for measurement of inulin clearance. Uncongugated FITC label and small inulin polymers were removed from the inulin solution by overnight dialysis against isotonic saline (SpectraPor 6 dialysis membrane, 1 kDa cutoff-limit, Spectrum Laboratories, Rancho Domingo, Calif.). Undissolved particulates were removed from the solution by filtration through a […] filter before each experiment (Steriflip, Millipore Inc. Billerica, Mass.). At least one hr was allowed for equilibration before the start of urine collections, at which point plasma inulin concentration had stabilized at an average value of 30±3 μg/ml.
Arterial blood pressure was measured with a pressure transducer connected to a cardiovascular analyzer (Model 50110, Stoelting Instruments Wood Dale, Ill.). Left renal blood flow was measured in some rats with a flow probe positioned on the left renal artery and connected to a blood flow monitor (model 1 PRB probe and model T420 monitor, Transonic Systems Inc. Ithaca N.Y.). Arterial pressure, heart rate, and renal blood flow were digitized with an A/D converter (Keithley instruments, Cleveland, Ohio Model KUSB 3100) for display and storage on a Windows-based personal computer using open layers data acquisition software (Dtx_Ez, Data Translation Inc, Marlboro, Mass.). Sodium and potassium concentrations in plasma and urine were measured by flame photometry (Model 943, Instrumentation Laboratory Co., Lexington Mass.). Glomerular filtration rate (GFR) was measured as the renal clearance rate of FITC-labeled inulin
After post-surgical equilibration (−60 min) and three 20 min control clearance periods, huUgnA or B was infused into the jugular vein at 10 μl/min over a 60 min period, followed by a return to isotonic saline for the remainder of the experiment. The infused doses of huUgnA were 12, 25, 50, 100, or 200 nmol/kg BW in a total of 38 rats; huUgnB doses were 9, 18, 35, 70, and 140 nmol/kg BW in 35 rats. A UgnA mimetic, E. coli STh (ST-core), was infused into a third group of 32 rats at doses of 17, 32, 66, 133, and 266 nmol/kg. Renal excretory responses to these infusions were slow to develop and long lasting, so clearance periods were continued for 2-3 hr after the termination of the peptide infusion. This protracted time course limited protocols to one dose of one peptide in each rat. A control group of 10 rats received isotonic saline at 10 μl/min in place of the peptide infusion, but was otherwise treated in the same way as the experimental groups.
The effects of combined infusions of huUgnA and B were investigated in two groups of rats that received 35 nmol/kg of huUgnB together with either 25 nmol/kg (n=5) or 100 nmol/kg of huUgnA (n=5). […]

[3] = Interconversion of huUgn A and B isomers in vitro (storage at −80° C.; pH 4, 50° C.); type: physicochemical; details: LC-MS at periodic intervals
Method: FIG. 2C is a graph showing the amount of “UgnA like” activity as a function of time in cells treated with either huUgnA and huUgnB. The A and B isomers (filled and open circles, respectively) interconvert slowly in vitro. Peptides were incubated at 50° C. in 1 mM citrate buffer (pH 4) for either 0, 24, or 48 hr. Samples were then diluted into bioassay medium, the pH was adjusted to 7.0, and activity was measured in the T84 cell bioassay. A huUgnA standard curve was generated in the same assay, and cyclic GMP responses were converted to recoveries of “UgnA-like” peptide by interpolation on this standard curve.
HPLC analysis and mass spectroscopy of Ugn isomers. The integrity and purity of huUgnA and B isomer preparations were confirmed by liquid chromatography/mass spectroscopy (LC-MS) analysis. The two Ugn isomers have different retention times on a reverse phase HPLC column (FIG. 1, dashed trace; huUgnA elutes ˜0.35 minutes before huUgnB). Separations were performed on a Hypersil Gold AQ 2.1×50 mm column from Thermo Fisher Scientific Inc (Waltham, Mass.) equilibrated in 98% buffer A (0.1% formic acid), 2% buffer B (85:10:5 Acetonitrile/Isopropyl Alcohol/5 mM NH4OAc pH 5.8) with a flow rate of 0.4 ml/min on an Acquity HPLC system. […]

[4] = huUgnA 25 nmol, Post-infuse, *** p<0.005 vs time control

Chain of cultured GC-C-expressing cells (P25092 24-1073): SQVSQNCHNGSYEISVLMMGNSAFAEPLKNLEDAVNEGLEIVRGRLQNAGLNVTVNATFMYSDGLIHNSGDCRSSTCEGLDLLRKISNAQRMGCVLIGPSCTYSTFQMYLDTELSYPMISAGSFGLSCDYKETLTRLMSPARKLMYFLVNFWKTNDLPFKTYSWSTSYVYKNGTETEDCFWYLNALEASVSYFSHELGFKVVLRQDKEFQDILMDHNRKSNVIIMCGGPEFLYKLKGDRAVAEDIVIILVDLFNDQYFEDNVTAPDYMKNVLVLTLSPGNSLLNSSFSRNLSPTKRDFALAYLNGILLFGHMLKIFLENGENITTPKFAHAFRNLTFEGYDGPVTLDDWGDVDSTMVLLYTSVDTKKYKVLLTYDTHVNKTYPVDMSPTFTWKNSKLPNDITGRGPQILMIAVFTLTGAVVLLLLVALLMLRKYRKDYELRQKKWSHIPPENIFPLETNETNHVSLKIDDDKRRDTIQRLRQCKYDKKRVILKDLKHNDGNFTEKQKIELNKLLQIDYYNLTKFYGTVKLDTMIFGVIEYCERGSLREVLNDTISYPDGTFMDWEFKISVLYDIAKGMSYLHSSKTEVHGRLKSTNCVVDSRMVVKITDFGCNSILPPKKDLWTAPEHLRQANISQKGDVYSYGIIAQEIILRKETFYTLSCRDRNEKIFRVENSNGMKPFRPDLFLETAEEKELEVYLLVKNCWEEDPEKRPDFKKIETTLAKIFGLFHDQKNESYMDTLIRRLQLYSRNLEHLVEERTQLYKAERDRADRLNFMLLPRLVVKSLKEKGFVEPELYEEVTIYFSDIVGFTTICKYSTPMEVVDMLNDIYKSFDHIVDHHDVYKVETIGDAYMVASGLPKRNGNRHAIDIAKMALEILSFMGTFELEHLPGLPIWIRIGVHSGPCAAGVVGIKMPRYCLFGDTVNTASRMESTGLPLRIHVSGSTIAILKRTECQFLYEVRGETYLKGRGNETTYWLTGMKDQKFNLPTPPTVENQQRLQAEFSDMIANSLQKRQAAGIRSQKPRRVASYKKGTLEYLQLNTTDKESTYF

CC(C)C[C@H](NC(=O)[C@@H]1CSSC[C@@H]2NC(=O)[C@H](CC(C)C)NC(=O)[C@H](CCC(=O)O)NC(=O)[C@@H](NC(=O)[C@H](CC(=O)O)NC(=O)[C@H](CC(=O)O)NC(=O)[C@@H](N)CC(N)=O)CSSC[C@H](NC(=O)[C@H](C)NC(=O)[C@H](C(C)C)NC(=O)[C@H](CC(N)=O)NC(=O)[C@H](C(C)C)NC2=O)C(=O)N[C@@H]([C@@H](C)O)C(=O)NCC(=O)N1)C(=O)O (single isomer, unassigned) [huUgnA, Asn Asp Asp Cys Glu Leu Cys Val Asn Val Ala Cys Thr Gly Cys Leu, reference compound]
EC50 [1]: ~100 nM | single effective dose, cumulative sodium excretion ([2]; FIG. 6B, lower or higher doses not different from control): 25 nmol/kg | FENa (fractional sodium excretion) ([2]; huUgnA 12 nmol, Infuse): 0.10 ± 0.02 % of filtered | UNaV (sodium excretion) ([2]; huUgnA 12 nmol, Infusion): 118.1 ± 25 nEq/min/g KW | FENa (fractional sodium excretion) ([2]; huUgnA 12 nmol, Post-infuse): 0.17 ± 0.02 % of filtered | UNaV (sodium excretion) ([2]; huUgnA 12 nmol, Post-infuse): 222 ± 33 nEq/min/g KW | FENa (fractional sodium excretion) ([2]; huUgnA 12 nmol, Pre-infuse): 0.08 ± 0.02 % of filtered | UNaV (sodium excretion) ([2]; huUgnA 12 nmol, Pre-infuse): 85 ± 20 nEq/min/g KW | FENa (fractional sodium excretion) ([2]; huUgnA 25 nmol, Infuse, * p<0.05 vs time control): 0.27 ± 0.08* % of filtered | UNaV (sodium excretion) ([2]; huUgnA 25 nmol, Infusion, * p<0.05 vs time control): 291.7 ± 77* nEq/min/g KW | FENa (fractional sodium excretion) [2, 4]: 0.68 ± 0.08*** % of filtered | UNaV (sodium excretion) [2, 4]: 664 ± 75*** nEq/min/g KW | FENa (fractional sodium excretion) ([2]; huUgnA 25 nmol, Pre-infuse): 0.09 ± 0.01 % of filtered | UNaV (sodium excretion) ([2]; huUgnA 25 nmol, Pre-infuse): 93 ± 7 nEq/min/g KW | FENa (fractional sodium excretion) ([2]; huUgnA 50 nmol, Infuse): 0.10 ± 0.01 % of filtered | UNaV (sodium excretion) ([2]; huUgnA 50 nmol, Infusion): 117.5 ± 22 nEq/min/g KW | FENa (fractional sodium excretion) ([2]; huUgnA 50 nmol, Post-infuse): 0.28 ± 0.05 % of filtered | UNaV (sodium excretion) ([2]; huUgnA 50 nmol, Post-infuse, * p<0.05 vs time control): 342 ± 63* nEq/min/g KW | FENa (fractional sodium excretion) ([2]; huUgnA 50 nmol, Pre-infuse): 0.06 ± 0.01 % of filtered | UNaV (sodium excretion) ([2]; huUgnA 50 nmol, Pre-infuse): 73 ± 10 nEq/min/g KW | FENa (fractional sodium excretion) ([2]; huUgnA 100 nmol, Infuse): 0.12 ± 0.03 % of filtered | UNaV (sodium excretion) ([2]; huUgnA 100 nmol, Infusion): 130.8 ± 32 nEq/min/g KW | FENa (fractional sodium excretion) ([2]; huUgnA 100 nmol, Post-infuse): 0.27 ± 0.06 % of filtered | UNaV (sodium excretion) ([2]; huUgnA 100 nmol, Post-infuse): 328 ± 80 nEq/min/g KW | FENa (fractional sodium excretion) ([2]; huUgnA 100 nmol, Pre-infuse): 0.06 ± 0.01 % of filtered | UNaV (sodium excretion) ([2]; huUgnA 100 nmol, Pre-infuse): 66 ± 9 nEq/min/g KW | FENa (fractional sodium excretion) ([2]; huUgnA 200 nmol, Infuse): 0.11 ± 0.02 % of filtered | UNaV (sodium excretion) ([2]; huUgnA 200 nmol, Infusion): 120.6 ± 18 nEq/min/g KW | FENa (fractional sodium excretion) ([2]; huUgnA 200 nmol, Post-infuse): 0.29 ± 0.03 % of filtered | UNaV (sodium excretion) ([2]; huUgnA 200 nmol, Post-infuse): 342 ± 51 nEq/min/g KW | FENa (fractional sodium excretion) ([2]; huUgnA 200 nmol, Pre-infuse): 0.06 ± 0.01 % of filtered | UNaV (sodium excretion) ([2]; huUgnA 200 nmol, Pre-infuse): 67 ± 1 nEq/min/g KW | UNaV time course, ANOVA vs control ([2]; infusion period (p<0.05) and post infusion period (p<0.001)): significant increase | shape of natriuretic dose-response relationship ([2]; rat, in vivo): bell-shaped | conversion from one isoform to the other during storage [3]: did not occur
